# Source: PMC13113287, “Synthesis and Biological Profiling of New 1,2,3,4-Tetrahydrobenzo[h]naphthyridine-Based Hybrids as Dual Inhibitors of β-Amyloid and Tau Aggregation with Anticholinesterase Activity” (Biomolecules, 2026)
# Settings: reference drugs for assay validation; mean ± SD of three experiments in triplicate
row,SMILES,Experimental Pe (PAMPA-BBB)
1,CCn1cc(C(=O)O)c(=O)c2cc(F)c(N3CCNCC3)cc21 [Norfloxacin],0.8 ± 0.05 10^−6 cm s^−1
2,CN1C(C(=O)Nc2ccccn2)=C(O)c2ccccc2S1(=O)=O [Piroxicam],2.4 ± 0.07 10^−6 cm s^−1
